Assay results: PubChem BioAssay AID504777 (National Center for Advancing Translational Sciences (NCATS), 2011)

Test system: mouse liver microsomes without NADPH, LC-MS/MS
Experiment: Enhancers of SMN2 Splice Variant Expression: Metabolic Stability in absence of NADPH Profiling
Conditions: at 1 µM; hits give high values
From the text: Spinal muscular atrophy (SMA) is caused by insufficient levels of the survival motor neuron protein SMN. The SMN locus on chromosome 5q13 contains two inverted copies of SMN called SMN1 and SMN2 which are 99% identical at the amino acid level. SMN1 is a fully functional protein and SMN2 skips exon 7 90% of the time. Skipping of exon 7 produces non-functional protein product. 10% of the SMN2 protein includes exon 7 and is fully functional. In the SMA disease state, mutations in the SMN1 locus are the cause of the disease state. Because only 10% of SMN2 is of the fully functional form, it is not sufficient to overcome the deficiency produced by the loss of the SMN1 product. A therapy that either increase the amount of SMN2 product made or to increase the inclusion of exon 7 has been proposed for the treatment of SMA. Mouse liver microsomes are generated from lysed mouse liver. Liver microsomes contain many drug metabolizing enzymes, including Cytochome P-450s and flavin-containing monooxygenases. Because drug metabolism is major way of drug clearance, this is an important result. NIH Chemical Genomics Center [NCGC] NIH Molecular Libraries Probe Production centers Network [MLPCN] MLPCN Grant: R03 MH084179-01 Assay Submitter (PI): Elliot Androphy
1uM of compound in incubated in mouse liver microsome; the reference compound is ketanserin. […] Samples are analyzed with LC-MS/MS.

- percent remaining: 95%
Compound: O=C(O)C1CCN(c2nc(-c3ccc(Br)cc3)cs2)CC1
